Counter-ions that a name gives are not always drawn.
Target: T1, human high molecular weight urokinase (Homo sapiens, UniProt P00749)
T1 construct: purchased Fujisawa Pharmaceutical Co., Ltd
Assay: Urokinase inhibiting effect (chromogenic substrate S-2288)
Assay type: biochemical
Settings: 25 IU/ml urokinase, substrate S-2288, pH 7.5, 37° C., 30 minutes, A405
Method: Now in order to show the utility of the object compound (I) and pharmaceutically acceptable salts, the test datum on urokinase inhibiting effect of the representative compound of the compound (I) of this invention is shown in the following.
Test Compound was incubated at desired concentrations with 25 International Units (IU)/ml human high molecular weight urokinase (Fujisawa Pharmaceutical Co., Ltd.) and urokinase substrate (S-2288, H-D-Isoleucyl-L-prolyl-L-arginine-p-nitroaniline dihydrochloride; Chromagenix, Sweden; Japan distributors Daiichikagakuyakuhin Co., Ltd.) in a 100 μl final volume of 50 mM Tris, 100 mM NaCl, 1 mM Na2 EDTA, 0.01% (v/v) polyoxyethylenesorbitan monooleate (Tween 80), pH 7.5 (Buffer Z). Incubations were carried out at 37° C. for 30 minutes. Color was quantitated by measuring absorbance at 405 nm (A405) using EL312 Automated Microplate Reader.

IC50: 470 nM
SMILES: CCCC=C1CCCc2sc(C(=N)N)cc21 [Compound A, 2-Amidino-4-n-butylidene-4,5,6,7-tetrahydrobenzo[b]thiophene hydrochloride]
